Experimental data published in US9590187B2, “Substituent-eliminable diketopyrrolopyrrole derivative, organic semiconductor material precursor solution, organic semiconductor material, and organic semiconductor material film” (RICOH COMPANY, LTD., priority 2013, dated 2017).

Legend:
[1] = Evaluation of solubility in organic solvents (saturated solution after reflux, cooling to room temperature, filtration, drying); format: physicochemical; conditions: reflux 10 minutes, cooled to room temperature, stand 16 hours, 0.2-μm PTFE filter
Method: Add each of the compounds obtained in the above Examples 1-6 to each of toluene, THF, and chloroform until it gets undissolved. Agitate each solution for 10 minutes under solvent reflux, then cool it to room temperature, further agitate it for 1 hour, and allow it to stand for 16 hours. Filter the supernatant liquid with a 0.2-μm PTFE filter to obtain a saturated solution. Dry the solution under reduced pressures to calculate solubility of each compound against each solvent. Evaluation criteria are as follows.
A: Solubility is 0.5% by weight or more.
B: Solubility is 0.05% by weight or more and less than 0.5% by weight.
C: Solubility is 0.005% by weight or more and less than 0.05% by weight.
D: Solubility is less than 0.005% by weight.

[2] = Thermogravimetric measurement of the elimination reaction (EXSTAR 6200, nitrogen atmosphere); format: physicochemical; conditions: observed within 190 to 210° C.
Method: (§1) Put the above-prepared substituent-eliminable derivative No. 6 (5 mg, 0.10 mmol) in an aluminum pan and heat it to 300° C. at a rate of 10° C./min with a thermal analysis instrument (EXSTAR 6200 from Seiko Instruments Inc.) under nitrogen atmosphere. Thus, a dark purple solid (3.8 mg) is obtained. m/z=704.1 (M+H).
as §1, with “No. 9” for “No. 6”, “mg, […]” for “mg, 0.10 mmol)”, “to 250°” for “to 300°”, “of 20°” for “of 10°”, “(M+H). The thermogravimetric measurement result is shown in FIG. 3.” for “(M+H).”
Repeat the procedures in Example 4 except for replacing the substituent-eliminable derivative No. 6 with No. 16 (5 mg, 4.6 μmol). Thus, a dark purple specific compound (4.2 mg) is obtained. m/z=872.2 (M+H).

[3] = heated to 300° C. at 10° C./min

Decrease in weight (thermogravimetric) [2, 3] [%]	Decrease in weight (thermogravimetric) ([2]; heated to 250° C. at 20° C./min) [%]	SMILES	Solubility in THF [1]	Solubility in Chloroform [1]	Solubility in Toluene [1]
		CCCCC(CC)CN1C(=O)C2=C(c3ccc(-c4ccc(-c5cccc(O)c5)s4)s3)N(CC(CC)CCCC)C(=O)C2=C1c1ccc(-c2ccc(-c3cccc(O)c3)s2)s1 (stereo not drawn) [Specific Compound No. 16]	D (Solubility is less than 0.005% by weight.)	D (Solubility is less than 0.005% by weight.)	D (Solubility is less than 0.005% by weight.)
18.5		CCCCC(CC)CN1C(=O)C2=C(c3ccc(-c4ccc(-c5cccc(OC(=O)OC(C)(C)C)c5)s4)s3)N(CC(CC)CCCC)C(=O)C2=C1c1ccc(-c2ccc(-c3cccc(OC(=O)OC(C)(C)C)c3)s2)s1 (stereo not drawn) [Substituent-eliminable Derivative No. 16]	A (Solubility is 0.5% by weight or more.)	A (Solubility is 0.5% by weight or more.)	A (Solubility is 0.5% by weight or more.)
		CCCCC(CC)CN1C(=O)C2=C(c3ccc(-c4cccc(O)c4)s3)N(CC(CC)CCCC)C(=O)C2=C1c1ccc(-c2cccc(O)c2)s1 (stereo not drawn) [Specific Compound No. 9]	D (Solubility is less than 0.005% by weight.)	D (Solubility is less than 0.005% by weight.)	D (Solubility is less than 0.005% by weight.)
21.5		CCCCC(CC)CN1C(=O)C2=C(c3ccc(-c4ccc(OC(=O)OC(C)(C)C)cc4)s3)N(CC(CC)CCCC)C(=O)C2=C1c1ccc(-c2ccc(OC(=O)OC(C)(C)C)cc2)s1 (stereo not drawn) [Substituent-eliminable Derivative No. 6]	A (Solubility is 0.5% by weight or more.)	A (Solubility is 0.5% by weight or more.)	B (Solubility is 0.05% by weight or more and less than 0.5% by weight.)
	21.2	CCCCC(CC)CN1C(=O)C2=C(c3ccc(-c4cccc(OC(=O)OC(C)(C)C)c4)s3)N(CC(CC)CCCC)C(=O)C2=C1c1ccc(-c2cccc(OC(=O)OC(C)(C)C)c2)s1 (stereo not drawn) [Substituent-eliminable Derivative No. 9]	A (Solubility is 0.5% by weight or more.)	A (Solubility is 0.5% by weight or more.)	A (Solubility is 0.5% by weight or more.)
		CCCCC(CC)CN1C(=O)C2=C(c3ccc(-c4ccc(O)cc4)s3)N(CC(CC)CCCC)C(=O)C2=C1c1ccc(-c2ccc(O)cc2)s1 (stereo not drawn) [Specific Compound No. 6]	D (Solubility is less than 0.005% by weight.)	D (Solubility is less than 0.005% by weight.)	D (Solubility is less than 0.005% by weight.)
